Read-outs that look alike come from different tables or passages of the source.
Legend:
R. solani = format: cell-based; conditions: for lethal effect on R. solani: similar to that observed when R. solani is exposed to M. albus; for Viability / Colony diameter at 3 days (mm): single compound; for Colony diameter at 3 days (mm): untreated control 70-72 mm; for Percent Inibition of Colony growth at 3 days: 30 μl (0.92) of compound, or 30 μl each (0.92) in mixtures, per 65 mL head space
Description: In one set of experiments, a Petri plate divided by plastic walls into 3 equal spaces was used for the assay. A plug of R. solani was placed in one section of the Petri plate containing PDA. On another section of the plate, a lx2 cm piece of sterile filter paper was loaded with the test compound(s). All plates were wrapped with two layers of saran film and incubated at room temperature. The head space in each plate was 65 ml. Removing the agar plug and placing it onto a fresh PDA Petri plate determined the viability of R. Solani exposed to each test compound. Control experiments were also conducted along side without test compound(s).
The diameter of R. solani colonies on untreated control plates was 70-72 mm. The (+) symbol in the viability column of each table above indicates continued viability of the organism after exposure to and removal from the given compound or mixture, while the (−) symbol indicates death of the organism. Multiple (+) and (−) symbols in the same column indicate the results of multiple trials.
Synergism between the volatile organic components produced by M. albus was studied using the method of Limpel as described by Richer (Richer, D. L. 1987). The determination of synergy as described by Limpel can be represented by the following equation: […]
Where Ee is the expected additive effect of the two antifungal compounds, X is the observed percentage of inhibition of the test organism when antifungal agent A is applied alone at the rate used in the mixture, and Y is the observed percentage inhibition of the test organism when antifungal agent B is used alone at the rate used in the mixture.
Experimental studies were set up to determine if synergy exists between the components produced by M. albus. The biological activity of individual volatile organic compounds and mixtures of volatile organic compounds was tested according to the method described in Example 10 above. The observed inhibitory effects of the volatile organic compounds were then compared to the expected additive effects as calculated from the equation above.

[1] = test system: selected group of 7 test fungi; assay: Artificial atmosphere test of esters and individual esters; format: cell-based
Description: In another set of experiments, test solutions were prepared by placing the volatile organic compounds isolatable from Muscodor albus cultures grown on potato dextrose agar (PDA) in vials in the relative proportions that they occurred in the gas phase of such cultures. The test mixture was placed in a presterilized microcup (4×6 mm) located in the center of a Petri plate containing PDA. When not in use, the mixture was stored at 0° C. The test organisms, freshly growing and excised on 3 mm^3 agar blocks (at least 3 agar blocks per test fungus), were placed 2-3 cm from the microcup and the plate wrapped with two layers of parafilm and grown for 2 or more days at 23° C. Measurements were made on mycelial growth from the edge of the agar blocks. However, in the case of bacteria and Candida albicans they were streaked on the test side of the PDA plate and checked for new visible growth and viability by restreaking from the original area of the agar plate that had been inoculated. Appropriate controls were also set up in which no test solution was placed into the microcup. Tests on 3.2-90 μl of the artificial mixture per 50 CC of air space above the PDA plate were done on 3 replicates in order to obtain IC50 data for each test organism. Viability of the test microbes was made by aseptically removing the small agar block and placing it on a PDA plate and observing growth after 1-3 days.
To determine the relative biological activity of each class of compounds, individual classes were also tested in the relative amounts in which they occur at the optimum concentration of the entire mixture, which is 60 μl of test mixture per 50 CC of air space above the culture in a standard Petri plate. For instance, the esters represent 44% of the mixture of the identified volatiles and were tested at 26.4 μl/50 CC (0.53 μl/CC) air space and the same procedure was used for each of the other classes of compounds that were identified. This was done with a selected group of 7 test fungi.
Each compound in the class of esters was individually evaluated. […]

[2] = amount 0.92 (60 μl/65 mL head space)

In the case of `CC(C)C(=O)O` [Isobutyric acid], the “lethal effect on R. solani” value (R. solani) is reported as “lethal effect”, the Viability (R. solani; [2]) is reported as “no” and the “Colony diameter at 3 days (mm)” value (R. solani; [2]) is reported as “no growth”.
For `CC(=O)OCCC(C)C` [3-methylbutyl acetate, 1-butanol, 3-methyl, acetate], the “death of test fungus” value ([1]; standard 3 day exposure period) was “under no conditions in any test, was death of any test fungus observed” and the “inhibitory bioactivity of the individual ester” value ([1]; tested at the level of 0.32 μl/CC (62% of all identified combined esters)) was “almost completely mimicked the results of all esters”.
In the case of `CC(C)CCO` [3-methyl-1-butanol], the “lethal effect on R. solani” value (R. solani) is reported as “lethal effect”, the “Colony diameter at 3 days (mm)” value (R. solani; amount 0.46 (30 μl/65 mL head space)) is reported as “fuzz” and the Viability (R. solani; [2]) is reported as “no”. For the same compound, the “Colony diameter at 3 days (mm)” value (R. solani; [2]) was “no growth”.
In the case of `CCC(C)CO` (centres unmarked) [2-Methyl-1-butanol], the “Colony diameter at 3 days (mm)” value (R. solani; [2]) is reported as “no growth”.
With `CCOC(=O)CC` [Ethyl propionate] the “Percent Inibition of Colony growth at 3 days” value (R. solani) was 76%.
With `CC(C)CCOC(=O)C(C)C` [propionic acid, 2-methyl, 3-methylbutyl ester] the “inhibitory bioactivity of the individual ester” value ([1]; each ester individually evaluated, comparable test) was “minimal inhibitory bioactivity”.
With `CCCC(=O)OCC` [Ethyl butyrate] the “Percent Inibition of Colony growth at 3 days” value (R. solani) was 86% and the “Colony diameter at 3 days (mm)” value (R. solani; [2]) was “no growth”.

Source: patent US20040141955A1, “Compositions related to a novel endophytic fungi and methods of use” (priority 2001, published 2004)
